Laboratory results published in patent US20090221559A1 (priority 2005, published 2009).
pEC50, pIC50: −log10 of the molar value. Read-outs that look alike come from different tables or passages of the source.

Assays:
[1] = test system: HCV replicon RNA replication in Huh-7 luc/neo (Huh-Luc) cells; assay: HCV replicon assay (stable replicon cell reporter assay, luciferase read-out); assay type: cell-based, HCV type 1b; settings: for EC50: read-out: Replicon Assay EC50 (μM), Huh-Luc cells, incubation of three days, luciferase activity
How it was run: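 Huh-7 cells stably carry a bicistronic HCV 1b NS3-NS5B subgenomic replicon with firefly luciferase and neo markers. Cells were plated with compound across a concentration range and incubated three days. Replication was measured as luciferase activity to give dose-response curves.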

[2] = molecular target: T1, HCV NS5B polymerase (His-tagged, C-terminal 21 amino acid deleted NS5B, HC-J4) (Hepatitis C virus genotype 1b, UniProt O92972); assay: NS5b polymerase assay (biochemical RdRp assay, 3H-GTP incorporation, SPA beads); design: species or system HCV genotype 1b; settings: for IC50: NS5B Polymerase Assay IC50 (μM); for pIC50: 3H-GTP incorporation, 2 h at 25° C.
T1 construct: The cDNA encoding NS5B amino acid 1-570 (HC-J4, genotype 1b); His tag (His6, from pET-21b) (C); made in house; host or cells: E. coli BL21 (DE3)
T1 sequence (O92972 2417-3000, looked up, stated change not applied): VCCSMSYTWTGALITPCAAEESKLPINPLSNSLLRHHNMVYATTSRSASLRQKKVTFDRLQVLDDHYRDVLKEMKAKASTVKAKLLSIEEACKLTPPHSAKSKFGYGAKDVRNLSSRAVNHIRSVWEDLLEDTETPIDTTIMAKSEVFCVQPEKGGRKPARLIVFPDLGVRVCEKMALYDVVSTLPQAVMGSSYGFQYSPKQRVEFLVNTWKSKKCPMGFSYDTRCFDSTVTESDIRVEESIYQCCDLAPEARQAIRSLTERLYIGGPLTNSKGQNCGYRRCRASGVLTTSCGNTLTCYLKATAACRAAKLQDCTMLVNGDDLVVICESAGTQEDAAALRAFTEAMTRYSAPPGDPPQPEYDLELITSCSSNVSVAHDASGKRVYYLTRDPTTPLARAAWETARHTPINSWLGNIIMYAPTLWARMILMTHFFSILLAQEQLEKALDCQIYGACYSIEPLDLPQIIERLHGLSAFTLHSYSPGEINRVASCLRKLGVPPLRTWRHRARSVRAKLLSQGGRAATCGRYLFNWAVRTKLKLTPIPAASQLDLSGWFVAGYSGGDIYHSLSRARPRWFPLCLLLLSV
How it was run: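 His-tagged C-terminal-21-aa-deleted NS5B (genotype 1b, HC-J4) at 200 nM was preincubated 15 min at RT with compound on 5′-biotinylated oligo(rG13)/poly(rC) template/primer before NTPs. Reaction with 600 nM GTP plus 0.1 μCi 3H-GTP and 5 mM MgCl2 in Tris pH 7.5 ran 2 h at 25 °C. Stopped with EDTA/SPA beads for incorporation counting.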

[3] = Huh-Luc cells, three days incubation, luciferase activity, read-out: Replicon Assay EC50
[4] = 200 nM enzyme, read-out: NS5B Polymerase Assay IC50
[5] = Hepatitis C virus, Huh-7, 72 h, read-out: Replicon Assay EC50, Huh-Luc cells, three days incubation, luciferase activity
[6] = NS5B Polymerase Assay IC50, 200 nM enzyme

Compound | EC50 ([1]; Hepatitis C virus, Huh-7, 72 h) [µM] | IC50 [2] [µM] | pEC50 [1, 5] | pIC50 [2, 6] | further results
CC1(C)CC(=O)C2=C(C1)Nc1ccccc1NC2c1cc(Cl)cc(Cl)c1 (stereo not drawn) [compound 436, 11-[3,5-dichlorophenyl]-3,3-dimethyl-2,3,4,5,10,11-hexahydro-1H-dibenzo[b,e][1,4]diazepin-1-one] | 19.7 | > 133 | – | – | –
CCn1c2ccccc2c2cc([C@@H]3Nc4ccccc4NC4=C3C(=O)C[C@@H](c3ccccc3)C4)ccc21 [compound 484] | 6.65 | > 42.7 | – | – | –
Cc1cccc(C2Nc3ccccc3NC3=C2C(=O)CC(c2ccccc2)C3)c1 (stereo not drawn) [compound 354] | 20.5 | > 42.7 | – | – | –
CCCOc1ccccc1C1CC(=O)C2=C(C1)Nc1ccccc1N(C(=O)CC)C2c1ccc(OC)cc1 (stereo not drawn) [compound 220] | – | – | – | – | pEC50 [1, 3]: 5.51; pIC50 [2, 4]: < 4.37
COc1ccc(C2CC(=O)C3=C(C2)Nc2ccccc2NC3c2ccc(OC)cc2OC)cc1 (stereo not drawn) [compound 372] | 1.94 | > 42.7 | – | – | –
CC1(C)CC(=O)C2=C(C1)Nc1ccccc1N(C(=O)C(F)(F)F)C2c1ccc(-c2ccc(Br)cc2)o1 (stereo not drawn) [compound 278] | – | – | 4.88 | < 4.37 | –
COc1c(Cl)cc(Cl)cc1C1C2=C(CC(C)(C)CC2=O)Nc2ccccc2N1C(=O)C(F)(F)F (stereo not drawn) [compound 116] | – | – | < 4.49 | < 4.37 | –
CC1(C)CC(=O)C2=C(C1)Nc1ccccc1NC2/C(Br)=C/c1ccccc1 (racemic) [compound 500, 11-(1-Bromo-2-phenylvinyl)-3,3-dimethyl-2,3,4,5,10,11-hexahydro-dibenzo[b,e][1,4]diazepin-1-one] | 26.5 | > 133 | – | – | –
O=C1C[C@@H](c2ccc(Cl)cc2)CC2=C1[C@H](c1cccnc1)Nc1ccccc1N2 [compound 483] | 15.5 | > 42.7 | – | – | –
COc1ccc(C2C3=C(CC(c4cccc([N+](=O)[O-])c4)CC3=O)Nc3ccccc3N2C(C)=O)cc1OC (mixture of isomers) [compound 180] | – | – | – | – | pEC50 [1, 3]: 4.93; pIC50 [2, 4]: < 4.37
CC(=O)N1c2ccccc2NC2=C(C(=O)CC(C)(C)C2)[C@H]1c1ccc(OCc2ccccc2)cc1Cl (single isomer, unassigned) [compound 305] | – | – | 5.11 | 7.46 | –
CCCCCC(=O)N1c2ccccc2NC2=C(C(=O)CC(C)(C)C2)C1c1ccc(OC(C)C)cc1 (stereo not drawn) [compound 83] | – | – | 5.38 | < 4.37 | –
CC1(C)CC(=O)C2=C(C1)Nc1cc(C(=O)c3ccccc3)ccc1NC2c1ccccc1Cl (stereo not drawn) [compound 463] | 7.43 | > 33.3 | – | – | –
CCCOc1ccc(C2Nc3ccccc3NC3=C2C(=O)CC(c2ccc(OC)cc2)C3)cc1OC (stereo not drawn) [compound 394] | 14.1 | > 42.7 | – | – | –
CC(=O)N1c2ccccc2NC2=C(C(=O)CC(C)(C)C2)C1c1ccc(OCc2ccccc2)cc1 (stereo not drawn) [compound 42] | – | – | – | – | pEC50 [1, 3]: 5.19; pIC50 [2, 4]: 5.25
CCCCC(=O)N1c2ccccc2NC2=C(C(=O)CC(C)(C)C2)C1c1ccc(OC)c(OC)c1 (stereo not drawn) [compound 80] | – | – | 5.02 | < 4.48 | –
CC1(C)CC(=O)C2=C(C1)Nc1ccccc1N(C(=O)Cc1ccccc1)C2c1cccc(O)c1 (stereo not drawn) [compound 39] | – | – | 5.13 | < 4.37 | –
CCOc1ccc(C2C3=C(CC(C)(C)CC3=O)Nc3ccccc3N2C(=O)Cc2ccc(Cl)cc2)cc1 (stereo not drawn) [compound 85] | – | – | 4.67 | < 4.37 | –
CC(=O)N1c2ccccc2NC2=C(C(=O)CC(C)(C)C2)C1c1ccc(Cl)cc1 (stereo not drawn) [compound 111] | – | – | < 4.49 | < 4.37 | –
COc1ccc(C2CC(=O)C3=C(C2)Nc2ccccc2NC3c2cc(Br)ccc2OC)cc1OC (stereo not drawn) [compound 404] | 3.24 | > 42.7 | – | – | –
COc1ccc(C2CC(=O)C3=C(C2)Nc2ccccc2NC3c2ccc(C(F)(F)F)cc2)cc1 (stereo not drawn) [compound 329] | 11.1 | > 33.3 | – | – | –
COc1ccc([C@@H]2CC(=O)C3=C(C2)Nc2ccccc2N[C@H]3c2cc3c(cc2[N+](=O)[O-])OCO3)cc1OC [compound 487] | 3.15 | > 42.7 | – | – | –
CC1(C)CC(=O)C2=C(C1)Nc1ccccc1NC2c1cccc(Oc2ccccc2)c1 (stereo not drawn) [compound 433, 11-(3-phenoxyphenyl)-3,3-dimethyl-2,3,4,5,10,11-hexahydro-1H-dibenzo[b,e][1,4]diazepin-1-one] | 3.81 | > 133 | – | – | –
CC(=O)N1c2ccccc2NC2=C(C(=O)CC(C)(C)C2)C1c1ccc(F)cc1 (stereo not drawn) [compound 4] | – | – | < 4.49 | < 4.37 | –

Compound | EC50 ([1]; Hepatitis C virus, Huh-7, 72 h) [µM] | IC50 [2] [µM] | pEC50 [1, 5] | pIC50 [2, 6] | further results
CC1(C)CC(=O)C2=C(C1)Nc1ccccc1N(C(=O)Cc1ccc(Cl)cc1)C2c1ccco1 (stereo not drawn) [compound 253] | – | – | 5.06 | < 4.37 | –
COc1ccc(C2C3=C(CC(C)(C)CC3=O)Nc3ccccc3N2C(=O)CC(C)C)cc1 (stereo not drawn) [compound 41] | – | – | 5.07 | < 4.37 | –
CC(=O)N1c2ccccc2NC2=C(C(=O)CC(C)(C)C2)C1c1ccc(OCc2ccncc2)cc1 (stereo not drawn) [compound 145, 10-acetyl-3,3-dimethyl-11-[4-(4-pyridylmethoxy)phenyl]-2,3,4,5,10,11-hexahydro-1H-dibenzo[b,e][1,4]diazepin-1-one] | – | – | 5.23 | 4.64 | –
COc1cccc(C2Nc3ccccc3NC3=C2C(=O)CC(c2ccccc2)C3)c1 (stereo not drawn) [compound 330] | 23.2 | > 42.7 | – | – | –
O=C1CC(c2ccccc2)CC2=C1C(c1ccccc1Br)Nc1ccccc1N2 (stereo not drawn) [compound 345] | 21 | > 42.7 | – | – | –
COC(=O)c1ccc(C2Nc3ccccc3NC3=C2C(=O)CC(c2ccccc2)C3)cc1 (stereo not drawn) [compound 374] | 10.1 | > 42.7 | – | – | –
CN(C)c1ccc(C2Nc3ccccc3NC3=C2C(=O)CC(c2ccc(Cl)cc2)C3)cc1 (stereo not drawn) [compound 364] | 20.8 | > 42.7 | – | – | –
CCC(=O)N1c2ccccc2NC2=C(C(=O)CC(c3ccc(C)cc3)C2)C1c1ccc(C)cc1 (stereo not drawn) [compound 201] | – | – | 5.02 | < 4.48 | –
COc1ccc(C2C3=C(CC(C)(C)CC3=O)Nc3ccccc3N2C(=O)C(F)(F)F)cc1OC (stereo not drawn) [compound 106] | – | – | < 4.49 | < 4.37 | –
CC(C)c1ccc(C2Nc3ccccc3NC3=C2C(=O)CC(c2ccccc2)C3)cc1 (stereo not drawn) [compound 367] | 24.6 | > 42.7 | – | – | –
CCC(=O)N1c2ccccc2NC2=C(C(=O)CC(C)(C)C2)C1c1ccccc1OC(C)CC (stereo not drawn) [compound 61] | – | – | 5.02 | < 4.37 | –
COc1ccc(C2CC(=O)C3=C(C2)Nc2ccccc2N(C(C)=O)C3c2cccc([N+](=O)[O-])c2)cc1OC (stereo not drawn) [compound 172] | – | – | – | – | pEC50 [1, 3]: 4.95; pIC50 [2, 4]: < 4.37
CCCCOc1ccc(C2C3=C(CC(C)(C)CC3=O)Nc3ccccc3N2C(=O)C(C)C)cc1 (stereo not drawn) [compound 14] | – | – | 4.98 | < 4.48 | –
CC(=O)N1c2ccccc2NC2=C(C(=O)CC(C)(C)C2)C1c1c(Cl)cc(OCc2ccccc2)cc1Cl (stereo not drawn) [compound 150, 10-acetyl-11-(4-benzyloxy-2,6-dichlorophenyl)-3,3-dimethyl-2,3,4,5,10,11-hexahydro-1H-dibenzo[b,e][1,4]diazepin-1-one] | – | – | 5.77 | < 3.88 | –
Cc1cc2c(cc1C)NC(c1c(F)cccc1F)C1=C(CC(C)(C)CC1=O)N2 (stereo not drawn) [compound 454] | 3.44 | > 42.7 | – | – | –
CC1(C)CC(=O)C2=C(C1)Nc1ccccc1NC2/C(Cl)=C/c1ccccc1 (racemic) [compound 506, 11-(1-Chloro-2-phenylvinyl)-3,3-dimethyl-2,3,4,5,10,11-hexahydro-dibenzo[b,e][1,4]diazepin-1-one] | 56.7 | > 42.7 | – | – | –
CCC(=O)N1c2ccccc2NC2=C(C(=O)CC(C)(C)C2)C1c1cccc(Cl)c1Cl (stereo not drawn) [compound 40] | – | – | < 4.61 | < 4.37 | –
O=C1CC(c2ccccc2)CC2=C1C(c1ccccc1[N+](=O)[O-])Nc1ccccc1N2 (stereo not drawn) [compound 396] | 11.3 | > 42.7 | – | – | –
CC1(C)CC(=O)C2=C(C1)Nc1ccccc1N(C(=O)Cc1ccccc1)C2c1c(Cl)cccc1Cl (stereo not drawn) [compound 16] | – | – | 4.98 | < 4.37 | –
CCCCOc1ccc(C2C3=C(CC(C)(C)CC3=O)Nc3ccccc3N2C(=O)c2ccccc2)cc1 (stereo not drawn) [compound 91] | – | – | 5.09 | < 4.37 | –
CC(=O)N1c2ccccc2NC2=C(C(=O)CC(C)(C)C2)C1c1cc(Cl)cc(Cl)c1 (stereo not drawn) [compound 133, 10-acetyl-11-[3,5-dichlorophenyl]-3,3-dimethyl-2,3,4,5,10,11-hexahydro-1H-dibenzo[b,e][1,4]diazepin-1-one] | – | – | 4.96 | < 3.88 | –
CC(C)CC(=O)N1c2ccccc2NC2=C(C(=O)CC(C)(C)C2)C1c1cccs1 (stereo not drawn) [compound 248] | – | – | 5.14 | < 4.37 | –
CC1(C)CC(=O)C2=C(C1)Nc1ccccc1NC2c1ccc(Oc2ccccc2)cc1 (stereo not drawn) [compound 435, 11-(4-phenoxyphenyl)-3,3-dimethyl-2,3,4,5,10,11-hexahydro-1H-dibenzo[b,e][1,4]diazepin-1-one] | 6.7 | > 133 | – | – | –
CSc1ccc(C2Nc3ccccc3NC3=C2C(=O)CC(c2ccc(Cl)cc2)C3)cc1 (stereo not drawn) [compound 382] | 16.7 | > 42.7 | – | – | –
